Test results: the NIST ThermoML archive (doi:10.1016/j.fluid.2005.02.009)

Details: Liquid

CC(C)OCCO [2-isopropoxyethanol]
viscosity [mPa·s]
Details | 293.15 K | 303.15 K | 313.15 K | 323.15 K | 333.15 K | 343.15 K | 353.15 K
100 kPa | 2.38 | 1.87 | 1.506 | 1.228 | 1.024 | 0.864 | 0.739
20000 kPa | 2.939 | 2.284 | 1.861 | 1.485 | 1.25 | 1.046 | 0.927
40000 kPa | 3.493 | 2.691 | 2.186 | 1.731 | 1.48 | 1.236 | 1.09
60000 kPa | 4.073 | 3.123 | 2.512 | 2.002 | 1.72 | 1.445 | 1.236
80000 kPa | 4.661 | 3.566 | 2.838 | 2.296 | 1.966 | 1.669 | 1.368
100000 kPa | 5.241 | 4.008 | 3.162 | 2.611 | 2.212 | 1.903 | 1.536

CCOCCO [2-ethoxyethan-1-ol]
viscosity [mPa·s]
Details | 293.15 K | 303.15 K | 313.15 K | 323.15 K | 333.15 K | 343.15 K | 353.15 K
100 kPa | 2.073 | 1.663 | 1.346 | 1.117 | 0.941 | 0.804 | 0.695
20000 kPa | 2.417 | 1.922 | 1.599 | 1.32 | 1.081 | 0.939 | 0.829
40000 kPa | 2.776 | 2.21 | 1.834 | 1.529 | 1.236 | 1.078 | 0.953
60000 kPa | 3.145 | 2.512 | 2.071 | 1.743 | 1.408 | 1.221 | 1.068
80000 kPa | 3.509 | 2.816 | 2.308 | 1.931 | 1.592 | 1.362 | 1.172
100000 kPa | 3.859 | 3.115 | 2.543 | 2.13 | 1.787 | 1.5 | 1.265

COCCO [2-methoxyethan-1-ol]
viscosity [mPa·s]
Details | 293.15 K | 303.15 K | 313.15 K | 323.15 K | 333.15 K | 343.15 K | 353.15 K
100 kPa | 1.707 | 1.398 | 1.162 | 0.984 | 0.843 | 0.731 | 0.635
20000 kPa | 1.948 | 1.583 | 1.339 | 1.135 | 0.965 | 0.852 | 0.738
40000 kPa | 2.186 | 1.777 | 1.489 | 1.268 | 1.084 | 0.958 | 0.834
60000 kPa | 2.426 | 1.977 | 1.647 | 1.405 | 1.21 | 1.058 | 0.924
80000 kPa | 2.659 | 2.176 | 1.814 | 1.544 | 1.338 | 1.149 | 1.006
100000 kPa | 2.878 | 2.367 | 1.988 | 1.685 | 1.466 | 1.231 | 1.08
